Measured values taken from patent US20040200144A1, “Plant growth regulator and a method of producing the regulator” (Dainichiseika Color & Chemicals Mfg. Co., Ltd., priority 2003, published 2004).

Assays:
Assay type in all cases: in vivo
[1] = test system: eggplant young plants; test: Dwarfing test of eggplant young plant; settings: for Plant Height / Dwarfing Rate: 5 ml per cell on 7th day, measured 25th day; for Dwarfing Rate: vs comparative group
Experimental: After seeding, the pot was placed in the same greenhouse as described above to sprout. Subsequently, on the 5th day, the cinnamic aqueous acid solutions were added to the nursery soil in the joint pots. One of the joint pots (24 cells) was prepared as a 0.05% cinnamic acid aqueous solution addition group, and 5 ml of the 0.05% cinnamic acid aqueous solution was added to the nursery soil of each cell. Another one of the join pots was prepared as a 0.2% cinnamic acid aqueous solution addition group, and 5 ml of the 0.2% cinnamic acid aqueous solution was added to the nursery soil of each cell. […] Subsequently, the cultivation of carrot young plants in each group was continued under general conditions. On the 27th day, the heights of young plants in each group were measured, the dwarfing rate (%) was calculated, and the dwarfing effect of cinnamic acid aqueous solution on carrot young plants was examined. From the results in Table 5, it became evident that the 0.05% and 0.2% cinnamic acid aqueous solutions are effective in dwarfing carrot young plants. In the same way as in Example 5 except that seeds of cauliflower were sowed, the cinnamic acid solutions were added to the nursery soil in the joint pot on the 4th day, and that heights of young plants in each group were measured on the 20th day, the dwarfing effect of cinnamic acid aqueous solution on cauliflower young plants was examined. From the results in Table 12, it became evident that the cinnamic acid aqueous solutions are effective in dwarfing cauliflower young plants. In the same way as in Example 12 except that seeds of tomato were sowed, and that the cinnamic acid solutions were added to the nursery soil of the joint pot on the 7th day, the dwarfing effect of cinnamic acid aqueous solution on tomato young plants was examined. From the results in Table 17, it became evident that the cinnamic acid aqueous solutions are effective in dwarfing tomato young plants. In the same way as in Example 17 except that seeds of eggplant were sowed, and that plant heights were measured on the 25th day, the dwarfing effect of cinnamic acid aqueous solution on eggplant young plants was examined. From the results in Table 19, it became evident that the cinnamic acid aqueous solutions are effective in dwarfing eggplant young plants.

[2] = test system: carrot young plants; test: Dwarfing test of carrot young plant; settings: for Plant Height / Dwarfing Rate: 5 ml per cell on 5th day, measured 27th day; for Dwarfing Rate: vs comparative group
Experimental: (§1) Dwarfing rate (%)=[(the plant height of the comparative group)−(the plant height of an addition group)/the plant height of the comparative group]×100
50 g of sodium tripolyphosphate was dissolved in 400 ml of distilled water at 80° C., 17.5 g of cinnamic acid was added to the sodium tripolyphosphate solution and dissolved by stirring, the resultant solution was diluted with distilled water until the total volume of solution was 500 ml, and thus 3.5% cinnamic acid aqueous solution (pH 6.5) was prepared. The aqueous solution was further diluted with distilled water 70 times or 17.5 times, and 0.05% cinnamic acid aqueous solution and 0.2% cinnamic acid aqueous solution were prepared, respectively.
Nursery soil for house use was filled into paper joint pots (each with 24 cells: 34×43×50 mm/cell), water was sufficiently given to the soil, and seeds of carrots were sowed. After seeding, the pot was placed in the same greenhouse as described above to sprout. Subsequently, on the 5th day, the cinnamic aqueous acid solutions were added to the nursery soil in the joint pots. One of the joint pots (24 cells) was prepared as a 0.05% cinnamic acid aqueous solution addition group, and 5 ml of the 0.05% cinnamic acid aqueous solution was added to the nursery soil of each cell. Another one of the join pots was prepared as a 0.2% cinnamic acid aqueous solution addition group, and 5 ml of the 0.2% cinnamic acid aqueous solution was added to the nursery soil of each cell. The other one of the joint pots was prepared as a comparative group in which 5 ml of water is added to each cell, instead of the cinnamic acid aqueous solution. Subsequently, the cultivation of carrot young plants in each group was continued under general conditions. On the 27th day, the heights of young plants in each group were measured, the dwarfing rate (%) was calculated, and the dwarfing effect of cinnamic acid aqueous solution on carrot young plants was examined. […]

[3] = test system: cabbage young plants; test: Dwarfing test of cabbage young plant; settings: for Plant Height / Dwarfing Rate: 5 ml per cell on 4th day, measured 22nd day; for Dwarfing Rate: vs comparative group
Experimental: as §1
18.4 g of potassium hydroxide was dissolved in 400 ml of distilled water at 20° C., 50 g of cinnamic acid was added to the potassium hydroxide solution and dissolved by stirring, the resultant solution was diluted with distilled water until the total volume of solution was 500 ml, and thus 10% cinnamic acid aqueous solution (pH 8.8) was prepared. The aqueous solution was further diluted with distilled water 100 times or 33.3 times, and 0.1% cinnamic acid aqueous solution and 0.3% cinnamic acid aqueous solution were prepared, respectively.
Nursery soil for house use was filled into the same polyethylene joint pot as described above, water was sufficiently given to the soil, and seeds of cabbage were sowed. After seeding, the pot was placed in the same greenhouse as described above to sprout. Subsequently, on the 4th day, the cinnamic acid aqueous solutions were added to the nursery soil in the joint pot. Among 36 cells, 12 cells were prepared as a 0.1% cinnamic acid aqueous solution addition group, and 5 ml of the 0.1% cinnamic acid aqueous solution in Example 3 was added to the nursery soil of each cell. Another 12 cells were prepared as 0.3% cinnamic acid aqueous solution addition group, and 5 ml of the 0.3% cinnamic acid aqueous solution in Example 3 was added to the nursery soil of each cell. Remaining 12 cells were prepared as a comparative group in which 5 ml of water is added to each cell, instead of the cinnamic acid aqueous solution. Subsequently, the cultivation of cabbage young plants in each group was continued under general conditions. On the 22nd day, the heights of young plants in each group were measured, the dwarfing rate (%) was calculated, and the dwarfing effect of cinnamic acid aqueous solution on cabbage young plants was examined.

SMILES: O=C(O)C=Cc1ccccc1 [cinnamic acid]
- Plant Height ([1]; 0.05% aqueous solution): 2.9 cm
- Dwarfing Rate ([1]; 0.05% aqueous solution): 12.1%
- Plant Height ([1]; 0.2% aqueous solution): 2.3 cm
- Dwarfing Rate ([1]; 0.2% aqueous solution): 30.3%
- dwarfing effect ([1]; eggplant young plants, 0.05% and 0.2% aqueous solutions): effective
- Plant Height ([2]; 0.05% aqueous solution): 7.9 cm
- Dwarfing Rate ([2]; 0.05% aqueous solution): 7.1%
- Plant Height ([2]; 0.2% aqueous solution): 6.9 cm
- Dwarfing Rate ([2]; 0.2% aqueous solution): 18.8%
- dwarfing effect ([2]; carrot young plants, 0.05% and 0.2% aqueous solutions): effective
- Plant Height ([3]; 0.1% aqueous solution): 7.9 cm
- Dwarfing Rate ([3]; 0.1% aqueous solution): 14.1%
- Plant Height ([3]; 0.3% aqueous solution): 6.1 cm
- Dwarfing Rate ([3]; 0.3% aqueous solution): 33.7%
- dwarfing effect ([3]; cabbage young plants, 0.1% and 0.3% aqueous solutions): effective
